Assay results as given in ChEMBL document CHEMBL6096674, “Design, Synthesis, and Anticancer Activity of Drug-like Iron Chelators/G-Quadruplex Binders as Synergic Dual Targeting Agents” (J Med Chem, 2025).
Calls of active or inactive are those of the source. The calls are words filed in the database; no cut-off is given here.

What was measured:
Quadruplex DNA [1] = assay: Stabilization of Parallel c-Kit1 G4-quadruplex DNA (5'-AGGGAGGGCGCTGGGAGGAGGG-3') (unknown origin) assessed as change in melting temperature at 5 equiv. by CD melting based analysis; format: nucleic-acid assay
Quadruplex DNA [2] = assay: Stabilization of Parallel c-Kit2 G4-quadruplex DNA (5'-CGGGCGGGCGCTAGGGAGGGT-3') (unknown origin) assessed as change in melting temperature at 5 equiv. by CD melting based analysis; format: nucleic-acid assay
Quadruplex DNA [3] = assay: Stabilization of Parallel c-Myc G4-quadruplex DNA (5'-TGAGGGTGGGTAGGGTGGGTAA-3') (unknown origin) assessed as change in melting temperature at 5 equiv. by CD melting based analysis; format: nucleic-acid assay
Quadruplex DNA [4] = assay: Stabilization of Hybrid Bcl2 G4-quadruplex DNA (5'-AGGGCGCGGGAGGAAGGGGGCGGGA-3') (unknown origin) assessed as change in melting temperature at 5 equiv. by CD melting based analysis; format: nucleic-acid assay
Quadruplex DNA [5] = assay: Stabilization of human Hybrid Tel23 G4-quadruplex DNA (5'-TAGGGTTAGGGTTAGGGTTAGGG-3') assessed as change in melting temperature at 5 equiv. by CD melting based analysis; format: nucleic-acid assay
Hairpin duplex DNA [6] = assay: Stabilization of Hairpin duplex DNA (5'-CGCGAATTCGCGTTTCGCGAATTCGCG-3') (unknown origin) assessed as change in melting temperature at 5 equiv. by CD melting based analysis; format: nucleic-acid assay
Jurkat [7] = assay: Antiproliferative activity against human Jurkat cells assessed as decrease in cell survival incubated for 48 hrs by MTT assay; format: functional, cell-based
A-375 = assay: Antiproliferative activity against human A-375 cells assessed as decrease in cell survival incubated for 48 hrs by MTT assay; format: functional, cell-based; conditions: A-375, 48 h
MCF7 = assay: Antiproliferative activity against human MCF7 cells assessed as decrease in cell survival incubated for 48 hrs by MTT assay; format: functional, cell-based; conditions: MCF7, 48 h
HCT-116 = assay: Antiproliferative activity against human HCT-116 cells assessed as decrease in cell survival incubated for 48 hrs by MTT assay; format: functional, cell-based; conditions: HCT-116, 48 h
[8] = Cytotoxicity against human HaCaT cells assessed as decrease in cell survival incubated for 48 hrs by MTT assay; format: toxicity, cell-based
Jurkat [9] = assay: Antiproliferative activity human Jurkat cells assessed as reduction in cell number incubated for 48 hrs by phase contrast light microscopy; format: functional, cell-based; conditions: dose 10-100 µM
[10] = Metal chelating activity assessed as free Fe2+ chelation by measuring decrease in cellular LIP content at IC50 measured after 48 hrs by red fluorescent probe based fluorescence microscopy
[11] = Drug uptake in human Jurkat cells assessed as localization of compound in nuclear and perinuclear region at IC50 incubated for 24 hrs by NucSpot Live 488 probe based fluorescence microscopy; format: ADME, cell-based
Jurkat [12] = assay: Induction of apoptosis in human Jurkat cells assessed as reduction in Bcl-2 expression at IC50 incubated for 24 to 48 hrs by western blot analysis; format: functional, cell-based; conditions: time 24-48 hrs
Jurkat [13] = assay: Induction of apoptosis in human Jurkat cells assessed as induction of phosphotidylserine exposure at IC50 incubated for 48 hrs by fluorescence microscopy; format: functional, cell-based
[14] = Metal chelating activity assessed as compound-Fe3+ complex formation at compound:iron concentration ratio of 1:1 and measured in acidic medium
[15] = Metal chelating activity assessed as compound-Fe3+ complex formation at compound:iron concentration ratio of 2:1 and measured in acidic medium
[16] = Metal chelating activity assessed as compound-Fe3+ complex formation at compound:iron concentration ratio of 3:1 and measured at pH 6 to 8
Quadruplex DNA [17] = assay: Binding affinity to Cy5-labeled c-Myc G4-quadruplex DNA (Cy5-TGAGGGTGGGTAGGGTGGGTAA-3') (unknown origin) assessed as equilibrium dissociation constant measured at 25 degC by microscale thermophoresis analysis; format: nucleic-acid assay
Quadruplex DNA [18] = assay: Binding affinity to Cy5-labeled Bcl-2 G4-quadruplex DNA (Cy5-AGGGCGCGGGAGGAAGGGGGCGGGA-3') (unknown origin) assessed as equilibrium dissociation constant measured at 25 degC by microscale thermophoresis analysis; format: nucleic-acid assay
Quadruplex DNA [19] = assay: Binding affinity to Cy5-labeled c-Kit2 G4-quadruplex DNA (Cy5-CGGGCGGGCGCTAGGGAGGGT-3') (unknown origin) assessed as equilibrium dissociation constant measured at 25 degC by microscale thermophoresis analysis; format: nucleic-acid assay
Quadruplex DNA [20] = assay: Binding affinity to human Cy5-labeled Tel23 G4-quadruplex DNA (Cy5-TAGGGTTAGGGTTAGGGTTAGGG-3') assessed as equilibrium dissociation constant measured at 25 degC by microscale thermophoresis analysis; format: nucleic-acid assay
Hairpin duplex DNA [21] = assay: Binding affinity to Cy5-labeled Hairpin duplex DNA (Cy5-CGCGAATTCGCGTTTCGCGAATTCGCG-3') (unknown origin) assessed as equilibrium dissociation constant measured at 25 degC by microscale thermophoresis analysis; format: nucleic-acid assay
Quadruplex DNA [22] = assay: Binding affinity to Bcl-2 G4-quadruplex DNA (5'-AGGGCGCGGGAGGAAGGGGGCGGGA-3') (unknown origin) assessed as perturbations of imino protons of G7,G19 and G23 within 3' G-tetrad with no significant change in aromatic proton regions upto compound:G4 ratio of 6:1 by ID IH NMR analysis; format: nucleic-acid assay
Quadruplex DNA [23] = assay: Binding affinity to Bcl-2 G4-quadruplex DNA (5'-AGGGCGCGGGAGGAAGGGGGCGGGA-3') (unknown origin) assessed as perturbations of imino protons of G8,G18 and G22 within middle G-tetrad with no significant change in aromatic proton regions upto compound:G4 ratio of 6:1 by ID IH NMR analysis; format: nucleic-acid assay
Quadruplex DNA [24] = assay: Binding affinity to Bcl-2 G4-quadruplex DNA (5'-AGGGCGCGGGAGGAAGGGGGCGGGA-3') (unknown origin) assessed as perturbations of imino protons of G1,G17 and G21 within 5' G-tetrad with no significant change in aromatic proton regions upto compound:G4 ratio of 6:1 by ID IH NMR analysis; format: nucleic-acid assay
Quadruplex DNA [25] = assay: Binding affinity to c-Myc G4-quadruplex DNA (5'-TGAGGGTGGGTAGGGTGGGTAA-3') (unknown origin) assessed as perturbations of imino protons of G7,G11,G16,G20 within 5' G-tetrad at compound:G4 ratio of 2:1 by 1D 1H NMR analysis; format: nucleic-acid assay
Quadruplex DNA [26] = assay: Binding affinity to c-Myc G4-quadruplex DNA (5'-TGAGGGTGGGTAGGGTGGGTAA-3') (unknown origin) assessed as perturbations of imino protons of G9,G13,G18,G22 within 3' G-tetrad at compound:G4 ratio of 2:1 by 1D 1H NMR analysis; format: nucleic-acid assay
Quadruplex DNA [27] = assay: Binding affinity to c-Myc G4-quadruplex DNA (5'-TGAGGGTGGGTAGGGTGGGTAA-3') (unknown origin) assessed as perturbations of imino protons of G8,G12,G17,G21 within middle G-tetrad at compound:G4 ratio of 2:1 by 1D 1H NMR analysis; format: nucleic-acid assay
Quadruplex DNA [28] = assay: Binding affinity to c-Myc G4-quadruplex DNA (5'-TGAGGGTGGGTAGGGTGGGTAA-3') (unknown origin) assessed as perturbations of aromatic protons of T23, A24 and A25 with no significant change in aromatic protons of loops at compound:G4 ratio of 2:1 by 1D 1H NMR analysis; format: nucleic-acid assay
[29] = Metal chelating activity assessed as affinity to Fe3+ at compound:iron concentration ratio of 3:1 and measured at pH 7.4

Structure (SMILES): O=C(NCCN1CCCC1)c1ccc2[nH]c(=O)c3cc(=O)c(O)cn3c2c1
- ΔTm (Quadruplex DNA [1]): 3.6 °C
- ΔTm (Quadruplex DNA [2]): 6.6 °C
- ΔTm (Quadruplex DNA [3]): 5 °C
- ΔTm (Quadruplex DNA [4]): 1.6 °C
- ΔTm (Quadruplex DNA [5]): 2.7 °C
- ΔTm (Hairpin duplex DNA [6]): 2.5 °C

Structure (SMILES): CN(C)CCCNC(=O)c1ccc2[nH]c(=O)c3cc(=O)c(OCc4ccccc4)cn3c2c1
- ΔTm (Quadruplex DNA [1]): 9.6 °C
- ΔTm (Quadruplex DNA [2]): 27.6 °C
- ΔTm (Quadruplex DNA [3]): 12 °C
- ΔTm (Quadruplex DNA [4]): 15.6 °C
- ΔTm (Quadruplex DNA [5]): 5.1 °C
- ΔTm (Hairpin duplex DNA [6]): 1.5 °C
- IC50 (Jurkat [7]): 55 µM
- IC50 (A-375): > 200 µM
- IC50 (MCF7): > 200 µM
- IC50 (HCT-116): > 200 µM
- IC50 at 48 h [8]: > 200 µM
- Activity (Jurkat [9]): Dose-dependent-effect
- Activity [10]: inactive

Structure (SMILES): N=C(N)NCCCNC(=O)c1ccc2[nH]c(=O)c3cc(=O)c(O)cn3c2c1
- ΔTm (Quadruplex DNA [1]): 3.2 °C
- ΔTm (Quadruplex DNA [2]): 8.6 °C
- ΔTm (Quadruplex DNA [3]): 3.6 °C
- ΔTm (Quadruplex DNA [4]): 8.5 °C
- ΔTm (Quadruplex DNA [5]): 2.8 °C
- ΔTm (Hairpin duplex DNA [6]): 0.5 °C

Structure (SMILES): O=C(NCc1ccccc1)c1ccc2[nH]c(=O)c3cc(=O)c(OCc4ccccc4)cn3c2c1
- ΔTm (Quadruplex DNA [1]): 0.1 °C
- ΔTm (Quadruplex DNA [2]): 7.5 °C
- ΔTm (Quadruplex DNA [3]): 3.7 °C
- ΔTm (Quadruplex DNA [4]): 3.6 °C
- ΔTm (Quadruplex DNA [5]): 1.2 °C
- ΔTm (Hairpin duplex DNA [6]): 0.3 °C

Structure (SMILES): CN(C)CCCNC(=O)c1ccc2[nH]c(=O)c3cc(=O)c(O)cn3c2c1
- ΔTm (Quadruplex DNA [1]): 5.5 °C
- ΔTm (Quadruplex DNA [2]): 10.1 °C
- ΔTm (Quadruplex DNA [3]): 7.4 °C
- ΔTm (Quadruplex DNA [4]): 8.7 °C
- ΔTm (Quadruplex DNA [5]): 3.8 °C
- ΔTm (Hairpin duplex DNA [6]): 1.8 °C
- IC50 (Jurkat [7]): 30 µM
- IC50 (A-375): > 200 µM
- IC50 (MCF7): > 200 µM
- IC50 (HCT-116): > 200 µM
- IC50 at 48 h [8]: > 200 µM
- Activity (Jurkat [9]): Dose-dependent-effect
- Activity [10]: Active
- Drug uptake [11]: Active
- Activity (Jurkat [12]): Active
- Activity (Jurkat [13]): Active
- Activity [14]: Active
- Activity [15]: Active
- Activity [16]: Active
- Kd (Quadruplex DNA [17]): 0.3 µM
- Kd (Quadruplex DNA [18]): 0.5 µM
- Kd (Quadruplex DNA [19]): 1.1 µM
- Kd (Quadruplex DNA [20]): 3.1 µM
- Kd (Hairpin duplex DNA [21]): > 20 µM
- Activity (Quadruplex DNA [22]): Active
- Activity (Quadruplex DNA [23]): Active
- Activity (Quadruplex DNA [24]): Active
- Activity (Quadruplex DNA [25]): Active
- Activity (Quadruplex DNA [26]): Active
- Activity (Quadruplex DNA [27]): Active
- Activity (Quadruplex DNA [28]): Active
- pFe3+ [29]: 16.8

Structure (SMILES): O=C(O)c1ccc2[nH]c(=O)c3cc(=O)c(OCc4ccccc4)cn3c2c1
- ΔTm (Quadruplex DNA [1]): -0.1 °C
- ΔTm (Quadruplex DNA [2]): 3.3 °C
- ΔTm (Quadruplex DNA [3]): 0.5 °C
- ΔTm (Quadruplex DNA [4]): 1.4 °C
- ΔTm (Quadruplex DNA [5]): 1 °C
- ΔTm (Hairpin duplex DNA [6]): 1 °C

Structure (SMILES): O=C(NCCN1CCOCC1)c1ccc2[nH]c(=O)c3cc(=O)c(O)cn3c2c1
- ΔTm (Quadruplex DNA [1]): 2.2 °C
- ΔTm (Quadruplex DNA [2]): 5.5 °C
- ΔTm (Quadruplex DNA [3]): 1.7 °C
- ΔTm (Quadruplex DNA [4]): -0.5 °C
- ΔTm (Quadruplex DNA [5]): 2.3 °C
- ΔTm (Hairpin duplex DNA [6]): 2.8 °C

Structure (SMILES): COc1cn2c(cc1=O)c(=O)[nH]c1ccc(C(=O)NCCCN(C)C)cc12
- ΔTm (Quadruplex DNA [1]): 9.3 °C
- ΔTm (Quadruplex DNA [2]): 17.3 °C
- ΔTm (Quadruplex DNA [3]): 5.9 °C
- ΔTm (Quadruplex DNA [4]): 13.5 °C
- ΔTm (Quadruplex DNA [5]): 4.2 °C
- ΔTm (Hairpin duplex DNA [6]): 1.8 °C

Structure (SMILES): Cc1c(O)c(=O)ccn1C
- pFe3+ [29]: 20
